These results are taken from US20080199485A1 (priority 2007, published 2008).

For assay [1], the system named is EL-4 cells pulsed with gp33 peptide. It is filed as cell-based, mouse.
Assay [2] concerns TCR-transgenic gp33-specific T cells. The assay is classed as cell-based, mouse.

“Also recorded” adds a separate entry of the source.

On to KAVYNFATM [gp33], for which the CTL response result in assay [1] is “strongest CTL response; also recorded: weaker CTL responses”. Further, in assay [2], the IFN-γ production result is listed as “transiently produced at an early stage”, the IFN-γ secretion entry was “higher amounts of IFN-gamma” and the IL-10 production result is “high amounts of IL-10 with an earlier onset”.
